One molecule from ChEMBL document CHEMBL5346962, “Discovery of Sulanemadlin (ALRN-6924), the First Cell-Permeating, Stabilized α-Helical Peptide in Clinical Development” (J Med Chem, 2023) can be followed below.

The structures appear in SMILES notation. Bridge positions count the residues as written; N and C are the ends. Square brackets hold non-standard residues; d marks the D form. Peptide text beside a SMILES is read from it. R8 = C=CCCCCCC[C@@](C)(N)C(=O)O; S5 = C=CCCC[C@](C)(N)C(=O)O

The experiment concerns SJSA-1. The experiment is described as follows: Cytotoxicity against human SJSA-1 cells incubated for 72 hrs in presence of 10% FBS by MTT assay. Conditions: SJSA-1, 72 h. For orientation: Tetrazolium dyes change colour on reduction, which living cells bring about.

By EC50 is commonly meant the concentration needed to bring the measured effect to its halfway point.

For `CC(=O)N[C@@H](CC(C)C)C(=O)N[C@H](C(=O)N[C@@H](Cc1ccccc1)C(=O)N[C@]1(C)CCCCCC/C=C\CCC[C@@](C)(C(=O)N[C@@H](C)C(=O)N[C@@H](C)C(=O)N[C@@H](C)C(=O)O)NC(=O)[C@H](CC(C)C)NC(=O)[C@H](CCC(N)=O)NC(=O)[C@H](C)NC(=O)[C@H](Cc2c[nH]c3ccccc23)NC(=O)[C@H](Cc2ccc(O)cc2)NC(=O)[C@H](CCC(=O)O)NC1=O)[C@@H](C)O` (Ac-LTF[R8]EYWAQL[S5]AAA-OH; staple (Z) 4-11), the EC50 amounted to 2.5 µM.
